A short description of assay [1]: Interleukin-1-Beta-Induced Tumor Necrosis Factor Alpha Release by Human Macrophages. The note with it: Macrophage; recombinant human IL-1β 20 ng/mL; compound 1 h before stimulation; supernatants after 24 h, ELISA; read-out: IC50 (IL-1β-induced TNFα release). The class given is cell-based. As to the method: (§1) The compounds of Formula I inhibit IL-1 action. One mechanism for inhibiting IL-1 action is to inhibit IL-1 production. Inhibition of IL-1 production was tested using lipopolysaccharide (LPS) stimulated macrophages. Inhibition of IL-1 induced production of cytokines was tested by measuring the inhibition of TNFα (tumor necrosis factor alpha) synthesis from IL-1 stimulated macrophages. The protocols for these test procedures are described below.
Interleukin-1-Beta-Induced Tumor Necrosis Factor Alpha Release by Human Macrophages
To determine the inhibitory concentrations for the test compounds against interleukin-1 beta (IL-1β)-induced tumor necrosis factor alpha (TNFα) release by human peripheral blood monocyte-derived macrophages. It should be understood that this is a test of the ability of the test compounds to modulate, i.e. inhibit, the activity of IL-1β by measuring the inhibition of IL-1β induced release of TNFα.
Source Human Peripheral Blood Monocyte-Derived Macrophages:
Venous blood is collected form healthy volunteers in 10 mM sodium citrate (2 mL sterile sodium citrate for 40 mL blood). Mononuclear cells are isolated with the Leucoprep tubes (Becton Dickinson, product number 2752 or 2751) spun at 1500 g for fifteen minutes. Aliquots of 3×10^6 mononuclear cells are added to 24-well tissue culture plates (Corning) in RPMI-1640. After 1 hour incubation at 37° C., non-adherent cells are gently rinsed off. The adherent cells (macrophages) are given back fresh medium RPMI-1640, 1 mL/well.
Macrophage monolayer cultures are pretreated with compounds one hour prior to IL-1β (20 ng/mL, recombinant human IL-1β) stimulation. Compounds dissolved in 95% ethanol or DMSO would require additional monolayer cultures treated with 10 or 2.5 μl 95% ethanol or DMSO, respectively. Culture supernatants are collected 24 hours later and are tested for TNF-α using a commercial ELISA kit (Cistron).
The TNF-α concentration in the culture supernatant is calculated by a standard curve generated from a series of known concentrations. Potency of compound is reported in IC50 (UM).

Assay [2] concerns interleukin-1 beta (IL-1β) release (production) by human peripheral blood monocyte-derived macrophages. Kind of assay: Endotoxin-Induced Interleukin-1 Beta Release by Human Macrophages. The class given is cell-based. The following applies: Macrophage, endotoxin 20 ng/mL (Salmonella typhimurium Re-mutant), compound 1 h before stimulation, supernatants after 24 h, ELISA. As to the method:
as §1
Endotoxin-Induced Interleukin-1 Beta Release by Human Macrophages
The objective of this test is to determine the inhibitory concentrations for the test compounds against endotoxin-induced interleukin-1 beta (IL-1β) release (production) by human peripheral blood monocyte-derived macrophages.
The source of the human peripheral blood monocyte-derived macrophages is as follows:
Venous blood is collected from healthy volunteers in 10 mM sodium citrate (2 mL sterile sodium citrate for 40 mL blood). Mononuclear cells are isolated with the Leucoprep tubes (Becton Dickenson, product number 2752 or 2751) spun at 1500 g for 15 minutes. Aliquots of 3×10^6 mononuclear cells are added to 24-well tissue culture plates (Corning) in RPMI-1640. After one hour incubation at 37° C., non-adherent cells are gently rinsed off. […]
The IL-1β concentration in the culture supernatant is calculated by a standard curve generated from a series of known concentrations. […]
A general note: An ELISA detects its analyte on a solid surface through an enzyme-linked reagent.

Assay [3] has as its system IL-1 production. The following applies: cited from earlier work.
For assay [4] the following is noted: mammal having an arthritic condition; U.S. Pat. No. 5,122,534; cited from earlier work.

The structures appear in SMILES notation.

A word on the IC50: it is the concentration that inhibits the measured activity by half. For `O=C(c1ccccc1)c1cc(=NS(=O)(=O)c2ccccc2)c2ccccc2o1` [2-Benzoyl-4-benzenesulfonylimino-4H-chromene], the IC50 in assay [1] was 1300 nM.

As for `CC(=O)c1cc(=NS(=O)(=O)c2ccccc2)c2c(Cl)cc(Cl)cc2[nH]1` [5,7-Dichloro-2-acetyl-4-[benzenesulfonylimino]-1,4-dihydroquinoline], the IC50 in assay [2] was 4000 nM; in assay [1] it was 8000 nM.

On to `O=C(c1ccccc1)c1cc(=NS(=O)(=O)c2ccccc2)c2c(Cl)cc(Cl)cc2[nH]1` [5,7-Dichloro-2-benzoyl-4-[benzenesulfonylimino]-1,4-dihydroquinoline], for which the concentration for half-maximal inhibition (IC50) was determined as 2000 nM in assay [2] and 3000 nM in assay [1].

Regarding `NC(=O)N1C(=O)/C(=C(\O)c2cccs2)c2cc(Cl)ccc21` [Tenidap], the “block IL-1 production” value in assay [3] is “known to block IL-1 production”. Further, in assay [4], the “serum LDL cholesterol” value was “reduces”, the serum triglycerides entry is given as “reduces” and the “total level of serum cholesterol” value is reported as “reduces”.

The record behind these values is patent publication US5684017A, “Benzenesulfonylimine derivatives as inhibitors of IL-1 action” (Merrell Pharmaceuticals Inc., priority 1996, dated 1997).
